Data on 1 molecule can be found in paper PMC4979060, “Structural basis of metallo-β-lactamase, serine-β-lactamase and penicillin-binding protein inhibition by cyclic boronates” (Nature Communications, 2016).

One data set concerns the target T1, PBP 5 (dacA) (Escherichia coli, UniProt P0AEB2).
T1 construct: made in house; host or cells: E. coli
The experiment in a line: PBP inhibition assay (nitrocefin substrate), PBP 5. The data set is classed as biochemical. How it is done: (§1) Kinetic and inhibition analyses, and ^19F NMR studies[10] against bacterial β-lactamases were performed as described. The FC-5 cephalosporin[9] was used as substrate for BcII, VIM-2, IMP-1, NDM-1, SPM-1, TEM-1 and OXA-10, meropenem[28] for CphA and nitrocefin[34] for PBP 3 and PBP 5.
In brief IC50 values were determined by preincubation of the appropriate amount of enzyme with the cyclic boronates in the assay buffers for 10 min at room temperature prior to the initiation of the assay by the addition of the appropriate substrate. The enzyme concentrations used are the following: 1 nM BcII, 100 nM VIM-2, 10 nM IMP-1, 10 nM NDM-1, 1 nM SPM-1, 1 nM TEM-1, 1 nM OXA-10, 2.5 nM CphA, 4 μM PBP 3 and 5 μM PBP 5; note that the final concentrations are stated. […]
The experiments were performed using a PHERAstar FS microplate reader (BMG Labtech) at room temperature (24–25 °C). […] The IC50 values were determined using the software package Graph Prism 5.

In data set [1] the test system is K pneumoniae Ecl8 ΔramR pSU18. The experiment in a line: MIC by broth microdilution. Format: cell-based. The conditions noted are these: Klebsiella pneumoniae, read-out: 2 MIC. An excerpt: (§2) Bacterial strains: E. coli ATCC 25922 (ref. [35]) and K. pneumoniae NCTC 5055 (ref. [36]) were used as reference strains. K. pneumoniae Ecl8 (ref. [16]) and its ramR knock-out[37] were used as previously described. K. pneumoniae strain IR8 (ref. [40]), and E. coli strains IR10 and IR60 (ref. [17]) were generous gifts of Prof. T.R. Walsh. Plasmid pSU18:NDM-1 contains the complete blaNDM-1 open reading frame, together with its promoter, cloned into plasmid pSU18 (ref. [41]). The recombinant plasmid was made by PCR amplifying the blaNDM-1 gene and surrounding sequences from E. coli IR10 with primers NDM1F 5′- […] -3′ and NDM1R 5′- GGCGATGACAGCATCATC -3′, TA cloning the amplicon into pCR2.1 TOPO (Invitrogen) and subcloning into pSU18 using BamHI and XbaI.
(§3) MIC values were determined by broth microdilution, in triplicate, in cation-adjusted Mueller Hinton broth (Sigma) according to the Clinical Laboratory Standards Institute (CLSI) guidelines. Experiments were carried out in microtitre plates (Corning) containing the medium plus meropenem (Sequoia Research Products, Pangbourne, UK) and/or inhibitor 2 as appropriate. Chloramphenicol (20 μg ml^−1) was included in assays of strains (K. pneumoniae Ecl8 and derivative) that carried pSU18 plasmids or derivatives (pSU18:NDM-1) to ensure maintenance of plasmids throughout. Inhibitor 2 was dissolved in DMSO to 100 mg ml^−1 and diluted in broth. The final concentration of DMSO in the assays was kept constant at 0.01% (experiments using 10 μg ml^−1 inhibitor) or 0.03% (experiments using 25 μg ml^−1 inhibitor). Plates were incubated overnight at 37 °C for 18–24 h and absorbance at 600 nm read using a Polarstar Omega (BMG LabTech) plate reader.

In another data set the test system is E. coli IR60. In words: MIC by broth microdilution. The data set is classed as cell-based. The conditions noted are these: Escherichia coli, IR60, read-out: 2 MIC.
Text: as §2, §3

The test system of a further data set is K. pneumoniae NCTC 5055. The experiment in a line: MIC by broth microdilution. The following applies: data not shown. Format: cell-based.
Text: as §2, §3

The next data set has as its system K. pneumoniae Ecl8 pSU18. The experiment in a line: MIC by broth microdilution. Format: cell-based. The conditions noted are these: Klebsiella pneumoniae, ECL8PSU18, read-out: 2 MIC.
Text: as §2, §3

Another data set deals with E. coli ATCC 25922. In words: MIC by broth microdilution. Format: cell-based. The following applies: data not shown.
Text: as §2, §3

The next data set concerns E. coli IR10. The experiment in a line: MIC by broth microdilution. Format: cell-based. The conditions noted are these: Escherichia coli, IR10, read-out: 2 MIC.
Text: as §2, §3

Data set [2] concerns K pneumoniae Ecl8 ΔramR pSU18:NDM-1. The experiment in a line: MIC by broth microdilution. The data set is classed as cell-based. The following applies: Klebsiella pneumoniae, read-out: 2 MIC, 2 alone; Ecl8 ΔramR pSU18:NDM-1 (blaSHV-1; blaNDM-1).
Text: as §2, §3

The target in a further data set is T2, VIM-2 (Escherichia coli, UniProt Q5U7L7).
T2 construct: made in house; host or cells: E. coli
The experiment in a line: Fluorogenic β-lactamase inhibition assay (FC-5 substrate), VIM-2. The data set is classed as biochemical. How it is done:
as §1
(§4) In brief IC50 values were determined by preincubation of the appropriate amount of enzyme with the cyclic boronates in the assay buffers for 10 min at room temperature prior to the initiation of the assay by the addition of the appropriate substrate. The enzyme concentrations used are the following: 1 nM BcII, 100 nM VIM-2, 10 nM IMP-1, 10 nM NDM-1, 1 nM SPM-1, 1 nM TEM-1, 1 nM OXA-10, 2.5 nM CphA, 4 μM PBP 3 and 5 μM PBP 5; note that the final concentrations are stated. The assay buffers used are the following: 50 mM HEPES, pH 7.2 supplemented with 1 μg BSA, 1 μg ZnSO4 and 0.01% Triton for BcII, VIM-2, IMP-1, NDM-1 and SPM-1, 15 mM MES, pH 6.5 for CphA, 50 mM HEPES, pH 7.2 supplemented with 200 mM NaCl and 0.01% Triton 100 for TEM-1, 100 mM sodium phosphate, pH 7.2 supplemented with 50 mM NaHCO3 and 0.01% Triton 100 for OXA-10 and 50 mM HEPES, pH 7.2 supplemented with 200 mM NaCl and 0.01% Triton 100 for PBP 3 and PBP 5. The amount of substrates used is the following: 5 μM for BcII, VIM-2, IMP-1, NDM-1 and SPM-1, 10 μM for TEM-1 and OXA-10, 125 μM for CphA and 25 μM for PBP 3 and PBP 5; note that the final concentrations are stated.
(§5) The experiments were performed using a PHERAstar FS microplate reader (BMG Labtech) at room temperature (24–25 °C). All enzymes and inhibitors were prepared in the specific assay buffer. The kinetic values in this study are the means from at least three independent measurements; at least nine different concentrations of the inhibitor were used to determine the kinetic parameters (IC50). The IC50 values were determined using the software package Graph Prism 5.

Another data set has as its system HEK293 cells. The experiment in a line: Cytotoxicity assay (MTS). Format: cell-based. The conditions noted are these: human HEK293 cells, concentrations up to 100 μM, 24 h. How it is done: HEK293 cells were seeded (2,000 per well) in normal DMEM in 96-well plates.[34] After 24 h, wells were dosed with titrated concentration of compounds in 1% dimethyl sulphoxide (DMSO)—final volume of media about 100 μl. Following a further 24 h incubation period, 20 μl tetrazolium (MTS, CellTiter96Aqueous One Solution (Promega)) was added to the media in each well. The plate was incubated at 37 °C, 5% CO2 for 4 h in the dark before absorbance was read at 490 nm to determine cell proliferation values.

The next data set addresses T3, BcII (Bacillus cereus, UniProt P04190).
T3 construct: made in house; host or cells: E. coli
The experiment in a line: Fluorogenic β-lactamase inhibition assay (FC-5 substrate), BcII. The data set is classed as biochemical. How it is done:
as §1, §4, §5

Some results are limits rather than exact numbers.

T3 sequence (P04190 31-257): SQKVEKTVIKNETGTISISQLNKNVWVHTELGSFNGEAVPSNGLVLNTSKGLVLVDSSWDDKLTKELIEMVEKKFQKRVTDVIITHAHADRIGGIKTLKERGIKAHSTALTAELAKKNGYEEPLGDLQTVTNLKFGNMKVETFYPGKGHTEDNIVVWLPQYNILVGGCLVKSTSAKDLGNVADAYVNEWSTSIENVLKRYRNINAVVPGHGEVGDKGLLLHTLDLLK
T1 sequence (P0AEB2 30-403): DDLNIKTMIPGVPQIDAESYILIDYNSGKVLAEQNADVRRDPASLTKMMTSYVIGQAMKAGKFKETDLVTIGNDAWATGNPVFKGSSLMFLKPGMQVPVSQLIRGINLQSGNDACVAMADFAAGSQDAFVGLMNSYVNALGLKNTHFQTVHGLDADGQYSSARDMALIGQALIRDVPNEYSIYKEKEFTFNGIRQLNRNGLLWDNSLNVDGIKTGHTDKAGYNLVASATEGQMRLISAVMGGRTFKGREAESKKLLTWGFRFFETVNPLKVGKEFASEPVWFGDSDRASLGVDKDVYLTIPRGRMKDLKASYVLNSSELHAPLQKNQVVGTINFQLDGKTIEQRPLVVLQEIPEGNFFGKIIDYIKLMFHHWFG

As for `NCc1ccc(C(=O)N[C@H]2Cc3cccc(C(=O)O)c3O[B-]2(O)O)cc1` [compound 2], the pIC50 on PBP 5 (dacA) was 8.7; against VIM-2, 8.5; against BcII, 6.5. In addition, the IC50 is 1.6 nM against PBP 5 (dacA) (10 min preincubation), 3 nM against VIM-2 (10 min preincubation) and 300 nM against BcII (10 min preincubation). Further, the minimum inhibitory concentration (MIC) (in data set [1]; in the data set with E. coli IR60; with K. pneumoniae Ecl8 pSU18; in the data set with E. coli IR10; in data set [2]) was over 128 µg/mL in each case. Besides, the “antibacterial activity of 2 alone (highest concentration without activity)” value in the data set on K. pneumoniae NCTC 5055 and with E. coli ATCC 25922 was over 128 µg/mL in each case. Also, in the data set on HEK293 cells, the cytotoxicity result is “Neither 1 nor 2 showed cytotoxicity”.
